One block for each molecule: values may come before it.
Tests used:
[1] = tested on: LM2-4luc experimental metastasis; settings: SU prior to IV inoculation of LM2-4luc; ref Ebos et al, 2009; cited from earlier work
Source text: Here, we tested whether concurrent VT therapy can be used to reverse this pro-metastatic potential of SU in the same model. LM2-4^luc is a metastatically aggressive luciferase-tagged derivative of the MDA-MB-231 cell line that was derived through serial in vivo selection ...

[2] = biological target: T1, mouse Tie2-Fc (mTie2-Fc) (Mus musculus, UniProt Q02858); test: SPR binding to mouse Tie2-Fc; settings: mouse Tie2-Fc (low- and high-density), 37°C, pH 7.4, Supplementary Fig S3, listed as VT
T1 construct: Purified human or mouse Tie2-Fc (i.e., Fc-conjugated extracellular domains of Tie2); purchased R&D Systems 762-T2-100
Source text: To better understand the difficulties we had in observing Tie2 activation by VT, we sought to characterize the binding affinity and kinetics of VT to Tie2. Purified human or mouse Tie2-Fc (i.e., Fc-conjugated extracellular domains of Tie2) were first coupled to protein A sepharose beads for pull-down experiments (Fig9A and B) or immobilized on a Biacore CM5 sensor chip for surface plasmon resonance (SPR) experiments (Fig9C and Supplementary Fig S3). […]
9. Tie2 Receptor-Binding Assays
Vasculotide (VT) was manufactured by Bachem UK Ltd. T7c (CHHHRHSF) was synthesized by Genscript (Piscataway, NJ, USA). PEG-Cys consists of a single cysteine reacted to each of the 4 arms of PEG-maleimide (Sunbright PTE-100MA, NOF Corporation, Tokyo, Japan). BowAng1 (Ang1-Fd-Fc-Fd) was made and provided by Regeneron Pharmaceuticals, Inc. (Tarrytown, NY, USA). COMP-Ang1 was purified in the Kerbel lab from serum-free culture media conditioned by an engineered CHO cell line provided by Dr. Gou Young Koh (KAIST), according to published protocols (Hwang et al, 2008).
Recombinant human Angiopoietin-1 (rhAng1) and Vascular Endothelial Growth Factor ( rhVEGF) were […]
purchased from R&D Systems. […]
(structural/molecular weight control for VT), and 40 μL of supernatant (7% of residual/unbound ligand) – were similarly boiled in SDS sample buffer. […]
Binding analysis were performed by exposure of immobilized mTie2-Fc to the analytes diluted in HBS-EP (0.01M HEPES pH 7.4, 0.15M NaCl, 3mM EDTA, 0.005% v/v Tween-20), which was supplemented with 1mg/mL carboxymethyl dextran (NSB reducer, GE Healthcare) to reduce non-specific binding to the sensor chip. […] To quantitatively determine the kinetic properties of the interaction (KD, kd, ka) and avoid mass transport limitations, mTie2-Fc and hTie2-Fc were immobilized at low density (1,000-1,200RU) onto separate flow cells of the CM5 chip using amine coupling chemistry. […] All data were analysed using BIA Evaluation Software 2.0 (GE Healthcare) to calculate kd, ka and KD using the 1:1 ligand binding model. […]

[3] = tested on: endothelial cells; settings: cells stimulated with sepsis-related mediators incl. thrombin; ref David et al, 2011; cited from earlier work
Source text: Thrombin is also a metastasis-associated factor that can promote endothelial adhesion and diapedesis of TCs (Nierodzik & Karpatkin, [2006]).

[4] = biological target: T2, mouse Tie2-Fc (Fc-conjugated extracellular domain of Tie2) (mouse, UniProt Q02858 23-746); test: SPR
T2 chain: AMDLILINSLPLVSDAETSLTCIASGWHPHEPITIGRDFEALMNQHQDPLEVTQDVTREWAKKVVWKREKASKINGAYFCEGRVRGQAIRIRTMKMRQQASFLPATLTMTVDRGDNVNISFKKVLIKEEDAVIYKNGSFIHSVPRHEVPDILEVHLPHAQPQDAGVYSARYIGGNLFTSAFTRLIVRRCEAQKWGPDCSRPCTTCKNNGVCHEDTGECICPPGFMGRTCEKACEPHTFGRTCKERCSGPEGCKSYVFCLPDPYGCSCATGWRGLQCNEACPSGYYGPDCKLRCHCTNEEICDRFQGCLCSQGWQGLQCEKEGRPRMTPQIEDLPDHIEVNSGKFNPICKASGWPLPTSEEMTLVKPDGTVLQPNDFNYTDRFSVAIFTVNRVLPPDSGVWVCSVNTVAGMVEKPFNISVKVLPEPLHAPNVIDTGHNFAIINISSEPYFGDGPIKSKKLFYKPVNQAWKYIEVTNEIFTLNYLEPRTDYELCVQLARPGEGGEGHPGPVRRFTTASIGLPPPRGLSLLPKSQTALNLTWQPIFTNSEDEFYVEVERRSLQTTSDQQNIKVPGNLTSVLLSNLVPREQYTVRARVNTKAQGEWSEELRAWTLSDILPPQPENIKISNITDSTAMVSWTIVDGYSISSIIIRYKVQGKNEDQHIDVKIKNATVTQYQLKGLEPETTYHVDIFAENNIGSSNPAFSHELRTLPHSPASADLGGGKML

Molecule: CCN(CC)CCNC(=O)c1c(C)[nH]c(/C=C2\C(=O)Nc3ccc(F)cc32)c1C [sunitinib, reference compound]
experimental metastasis, especially in the lungs [1]: promotion of experimental metastasis, especially in the lungs

Molecule: CHHHRHSF [Vasculotide, 4-armed maleimide-functionalized polyethylene glycol (PEG) backbone to link together four cysteine-capped T7 peptides, that is, CHHHRHSF]
binding to Tie2-Fc [2]: no binding to Tie2-Fc was detectable
endothelial barrier integrity [3]: preserve endothelial barrier integrity

koff [4]: 0.00033 s⁻¹
B1: recombinant human Ang1 (rhAng1) (ligand, UniProt Q15389 16-498, looked up)
chain: HIGCSNQRRSPENSGRRYNRIQHGQCAYTFILPEHDGNCRESTTDQYNTNALQRDAPHVEPDFSSQKLQHLEHVMENYTQWLQKLENYIVENMKSEMAQIQQNAVQNHTATMLEIGTSLLSQTAEQTRKLTDVETQVLNQTSRLEIQLLENSLSTYKLEKQLLQQTNEILKIHEKNSLLEHKILEMEGKHKEELDTLKEEKENLQGLVTRQTYIIQELEKQLNRATTNNSVLQKQQLELMDTVHNLVNLCTKEGVLLKGGKREEEKPFRDCADVYQAGFNKSGIYTIYINNMPEPKKVFCNMDVNGGGWTVIQHREDGSLDFQRGWKEYKMGFGNPSGEYWLGNEFIFAITSQRQYMLRIELMDWEGNRAYSQYDRFHIGNEKQNYRLYLKGHTGTAGKQSSLILHGADFSTKDADNDNCMCKCALMLTGGWWFDACGPSNLNGMFYTAGQNHGKLNGIKWHYFKGPSYSLRSTTMMIRPLDF
notes: angiopoietin-1, human, recombinant; also called angiopoietin-1; source: bought: R&D Systems (named for the Boyden chamber experiments)
